Key:
Porcine leukocyte LOX = biological target: T1, Porcine leukocyte LOX (Sus scrofa, UniProt P16469); assay: Kinetics of oxygenation of linoleoylated substrates by leukocyte LOX; format: biochemical; conditions: porcine leukocyte LOX 1.5 units/ml, 100 mM phosphate buffer pH 7.5, 5 mM EDTA; for Vm: 0.03% Tween 20; for Km: substrate 3-100 μM, 0.03% Tween 20, 25° C.
T1 construct: purchased Cayman Chemical Co. (Ann Arbor, Mich., USA)
T1 sequence (P16469 1-663): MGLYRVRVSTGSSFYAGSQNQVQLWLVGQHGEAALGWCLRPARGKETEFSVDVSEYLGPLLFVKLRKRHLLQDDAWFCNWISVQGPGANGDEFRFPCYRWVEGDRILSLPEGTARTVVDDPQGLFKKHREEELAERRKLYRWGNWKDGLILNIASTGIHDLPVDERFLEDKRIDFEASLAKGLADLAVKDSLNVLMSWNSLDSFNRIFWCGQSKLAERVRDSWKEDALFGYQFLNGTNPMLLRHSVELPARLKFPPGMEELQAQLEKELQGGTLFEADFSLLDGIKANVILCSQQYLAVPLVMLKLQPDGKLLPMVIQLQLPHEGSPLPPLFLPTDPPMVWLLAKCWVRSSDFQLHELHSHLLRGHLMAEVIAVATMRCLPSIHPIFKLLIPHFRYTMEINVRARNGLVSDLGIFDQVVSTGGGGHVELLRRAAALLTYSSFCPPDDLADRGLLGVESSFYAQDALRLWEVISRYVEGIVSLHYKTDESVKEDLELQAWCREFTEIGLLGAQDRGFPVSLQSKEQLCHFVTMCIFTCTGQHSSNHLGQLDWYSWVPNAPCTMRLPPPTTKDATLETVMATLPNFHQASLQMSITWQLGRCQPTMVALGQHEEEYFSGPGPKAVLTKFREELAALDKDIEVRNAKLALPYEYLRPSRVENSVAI
Description: Data were expressed as means ±S.D. of results from at least three independent experiments.

[1] = biological target: T2, Rabbit reticulocyte 15-lipoxygenase (reticulocyte LOX) (Oryctolagus cuniculus, UniProt P12530); assay: Oxygenation of arachidonoyl lysophospholipids by reticulocyte LOX; format: biochemical; conditions: reticulocyte LOX 2 units/ml, 50 mM phosphate buffer pH 7.4
T2 construct: purchased Biomol Inc. (Plymouth Meeting, Pa., USA)
T2 sequence (P12530 1-663): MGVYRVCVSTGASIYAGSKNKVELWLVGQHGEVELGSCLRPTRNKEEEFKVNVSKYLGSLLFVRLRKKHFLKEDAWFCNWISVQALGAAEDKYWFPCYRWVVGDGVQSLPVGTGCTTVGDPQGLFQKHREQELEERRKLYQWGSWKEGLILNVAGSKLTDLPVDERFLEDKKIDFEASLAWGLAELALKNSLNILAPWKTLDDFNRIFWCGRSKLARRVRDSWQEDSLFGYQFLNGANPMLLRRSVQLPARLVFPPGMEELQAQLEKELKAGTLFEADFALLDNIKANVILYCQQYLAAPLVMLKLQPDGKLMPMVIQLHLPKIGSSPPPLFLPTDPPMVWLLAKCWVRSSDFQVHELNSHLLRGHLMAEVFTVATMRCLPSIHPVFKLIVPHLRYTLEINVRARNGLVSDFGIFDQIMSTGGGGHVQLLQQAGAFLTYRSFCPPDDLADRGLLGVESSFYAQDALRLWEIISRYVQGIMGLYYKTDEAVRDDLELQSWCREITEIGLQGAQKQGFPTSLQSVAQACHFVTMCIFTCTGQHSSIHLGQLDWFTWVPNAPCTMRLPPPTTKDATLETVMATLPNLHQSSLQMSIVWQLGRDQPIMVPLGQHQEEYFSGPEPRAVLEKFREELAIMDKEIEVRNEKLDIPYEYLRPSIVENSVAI
Protocol: (§1) Activities of various LOXs were monitored by measuring the increase in absorbance at 234 nm due to the formation of hydroperoxide (ε234=25,000 M^−1 cm^−1) at 25° C. as described before (Smith et al, J. Biol. Chem. 247 (1972) 1038-1047). One unit is defined as the amount of LOXs that can produce one nanomole of conjugated diene per min. The reaction mixture (500 μl) included reticulocyte LOX (2 units/ml) in 50 mM phosphate buffer (pH 7.4), porcine leukocyte LOX (1 unit/ml) in 100 mM phosphate buffer (pH 7.5) containing 5 mM EDTA and 0.03% Tween 20, or soybean LOX-1 (2.5 units/ml) in 50 mM borax buffer (pH 9.0) at 25° C. The reactions were started by including each substrate (100 μM) into the above reaction mixture.
(§2) Reticulocyte LOX (2 units/ml), leukocyte LOX (1 units/ml) or soybean LOX-1 (2.5 units/ml) was incubated with each arachidonoyl derivative substrate of various concentrations as described above. The values of kinetic parameters were obtained according to Lineweaver Burke plot analyses as described before (Barroso et al, J. Chromatogr. B. Analyt. Technol. Biomed. Life. Sci. 814 (2005) 21-28).
It is noteworthy that the efficacy of arachidonoyl-lysoPC as a substrate for leukocyte LOX was approximately 10-fold greater than that of arachidonic acid. In an additional study, the oxygenation of arachidonoyl-lysoPC or arachidonoyl-lysoPA by reticulocyte LOX was examined. […]

leukocyte LOX = biological target: T3, leukocyte LOX (Sus scrofa, UniProt P16469); assay: Position specificity of leukocyte LOX in oxygenation of arachidonoyl-lysoPC (SP-HPLC of HETE); format: biochemical, porcine; conditions: predominant product 12-HETE
T3 construct: purchased Cayman Chemical Co. (Ann Arbor, Mich., USA)
T3 sequence (P16469 1-663): T1 sequence (P16469 1-663)
Protocol: After 30 min incubation, the reaction was stopped by the addition of sodium borohydride to reduce hydroperoxy compounds to their corresponding alcohols, which were subjected to alkaline hydrolysis. After 30 min incubation at 60° C. under N2, the mixture was subjected to lipid extraction as described previously (Leon et al, J. Agric. Food. Chem. 52 (2004) 1207-1211). Finally, the lipid extract was analyzed by SP-HPLC system equipped with silica gel column (4 μm, 150×3.9 mm, Waters, USA), which was eluted (1 ml/min) with n-hexane/isopropyl alcohol/acetic acid (100:1:0.05). The identification of hydrolysis products was carried out in comparison with each standard compound, 15-hydroxyeicosatetraenoic acid (HETE) or 12-HETE.
To establish the position of oxygenation of arachidonoyl chain in arachidonoyl-lysoPC, hydroperoxyeicosatetraenoyl-lysoPC was subjected to NaBH4 reduction, followed by saponification in alkaline medium, to afford hydroxyeicosatetraenoic acid, which was further purified by SP-HPLC.

[2] = biological target: T4, Leukocyte 12-lipoxygenase (leukocyte LOX) (Sus scrofa, UniProt P16469); assay: Kinetics of oxygenation of arachidonic acid or arachidonoyl-lysophospholipids by leukocyte LOX; format: biochemical, porcine; conditions: for Vm: 0.03% Tween 20
T4 construct: purchased Cayman Chemical Co. (Ann Arbor, Mich., USA)
T4 sequence (P16469 1-663): T1 sequence (P16469 1-663)
Protocol: as §1, §2

| Compound | Vm (Porcine leukocyte LOX) | Km (Porcine leukocyte LOX) | Vm/Km value in reticulocyte LOX-catalyzed oxygenation compared with arachidonic acid [1] | minor product behaving like 15-HETE in leukocyte LOX-catalyzed oxygenation (leukocyte LOX) | efficacy as a substrate for leukocyte LOX (Vm/Km) relative to arachidonic acid ([2]; greater than that of arachidonic acid) | Vm ([2]; leukocyte LOX 1 unit/ml, 100 mM phosphate buffer pH 7.5, 5 mM EDTA) | Km ([2]; leukocyte LOX 1 unit/ml, 100 mM phosphate buffer pH 7.5, 5 mM EDTA, 0.03% Tween 20, 25° C.) | Vm ([2]; leukocyte LOX 1 unit/ml, 100 mM phosphate buffer pH 7.5, 5 mM EDTA, listed as arachidonoyl-lysoPC) |
| --- | --- | --- | --- | --- | --- | --- | --- | --- |
| CCCCC/C=C\C/C=C\CCCCCCCC(=O)OCC(O)COP(=O)([O-])OCC[N+](C)(C)C (stereo not shown) [Linoleoyl-lysoPC, 1-linoleoyl Lysophosphatidylcholine] | 14.42 ± 0.78 units/mg | 15.1 ± 1.34 µM | – | – | – | – | – | – |
| CCCCC/C=C\C/C=C\C/C=C\C/C=C\CCCC(=O)OCC(O)COP(=O)([O-])OCC[N+](C)(C)C (stereo not shown) [Arachidonoyl-lysoPC, 1-Arachidonoyl lysophosphatidylcholine] | – | – | somewhat greater than that of arachidonic acid | ≤ 5% | approximately 10 fold | 199.8 ± 16.7 units/mg | 2.6 µM | 199.8 units/mg |
| CCCCC/C=C\C/C=C\CCCCCCCC(=O)O [Linoleic acid, linoleic acid] | 32.7 ± 1.93 units/mg | 31.2 ± 4.6 µM | – | – | – | – | – | – |
